According to article PMC2873402, “Discovery of High-Affinity Protein Binding Ligands – Backwards” (PLoS ONE, 2010):
Bridge positions count the residues as written; N and C are the ends. Ends that are not written are not given here. I, II: the chains in the order shown. * marks the point of attachment. StBu = CC(C)(C)S*

Experiments:
Type in all cases: binding
[1] = tested on: GRP58 (protein disulfide-isomerase A3); experiment: SPR screening against immobilized GRP58; settings: 100 nM synbody, Biacore T-100, CM5 amine coupling, 25°C immobilization, 90 s association, 240 s dissociation
Method: The synbody (100nM concentration) was screened by Surface Plasmon Resonance (SPR) against immobilized AKT1 and GRP58 on a Biacore T-100 SPR. The synbody appeared to have high affinity for AKT1 and low affinity for GRP58 (Figure S2). To accurately determine the binding kinetics of the synbody-AKT1 complex, several concentrations of synbody were injected over a low-density surface of biotin-labeled AKT1 captured on a Neutratvidin SPR chip using a Biacore A-100.
SPR screening of the synbody against AKT1 and GRP58 was performed on a Biacore T-100 (GE Healthcare, Piscataway, NJ, USA). The series S sensor chip CM5, amine coupling reagents and HBS-EP were obtained from GE Healthcare. A standard amine immobilization protocol was performed at 25°C using NaHCO3 (10mM in 150mM NaCl, pH 4.5) as the immobilization buffer. The CM-5 dextran chip was activated by a 10 minute injection of a freshly prepared 1∶1 solution of 400 mM 1-ethyl-3-(3-dimethylaminopropyl)-carbodimide (EDC): 100 mM N-hydroxysuccimide (NHS) in water. The NHS-carboxy groups of the dextran surface were treated with a solution of AKT1 or GRP58 (25 µg/ml) in sodium acetate (pH 5.0) for 8 mins at a flow rate of 10 µl/min. Any residual active sites were then quenched by a 5 min pulse of ethylene diamine (1M, pH 8.5). […]

AKT2 = experiment: IP of AKT isoforms spiked into A549 lysate: AKT2; settings: 250 ng of each isoform in 500 µg A549 lysate, Western Blot
Method: (§1) This apparent specificity was investigated further by performing an IP using 250 ng of each isoform of AKT spiked into 500 µg of A-549 cell lysate.
(§2) For all IP experiments, either a 1 µM or 250 nM solution of biotin-conjugated synbody was captured on 20 µL of streptavidin coated paramagnetic M-280 Dynabeads (Life Technologies) according to the manufacturers protocol. Synbody coated beads were washed five times with 1 mL of 100 mM phosphate buffered saline containing 0.05% Tween-20 (PBST) and incubated overnight at 4°C with shaking in the desired amount of target protein in A549 cell lysate. For Kd determination experiments, serial dilutions of AKT1 or ABL1 were prepared in binding buffer. After binding, beads were washed five times with 1 mL of PBST and heated at 70°C in 20 µL of 1× LDS loading buffer (Invitrogen) for 10 minutes. The samples were analyzed by SDS-PAGE gel with Western Blot detection using the appropriate antibody and imaged on a GE Healthcare Typhoon Trio.

AKT1 [2] = molecular target: T1, AKT1 (Homo sapiens, UniProt P31749); experiment: IP of AKT1 from solution, Western Blot; parameters: purchased Life Technologies; settings: synbody with C-terminal Lys-Biotin on streptavidin magnetic beads, 89 nM to 0.7 nM AKT1, overnight, 4°C
T1 sequence (P31749 whole entry): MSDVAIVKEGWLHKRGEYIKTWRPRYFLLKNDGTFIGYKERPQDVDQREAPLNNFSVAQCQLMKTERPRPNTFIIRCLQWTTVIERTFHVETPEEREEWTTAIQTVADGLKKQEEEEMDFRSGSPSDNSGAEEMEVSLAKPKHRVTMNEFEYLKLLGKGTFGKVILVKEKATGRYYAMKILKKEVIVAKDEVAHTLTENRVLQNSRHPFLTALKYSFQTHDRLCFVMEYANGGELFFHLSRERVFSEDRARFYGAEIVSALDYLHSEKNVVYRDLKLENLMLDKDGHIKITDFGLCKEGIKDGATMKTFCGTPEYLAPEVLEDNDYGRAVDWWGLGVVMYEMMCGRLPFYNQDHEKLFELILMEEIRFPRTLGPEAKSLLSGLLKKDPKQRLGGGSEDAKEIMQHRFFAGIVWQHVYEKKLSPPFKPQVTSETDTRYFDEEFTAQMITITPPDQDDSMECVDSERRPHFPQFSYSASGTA
Method: The synbody was tested for its ability to bind native protein in solution. A variant of the synbody was prepared in which the C-terminal Cys was replaced with a Lys-Biotin. The synbody was used in an immunoprecipitation (IP) experiment in which it was bound to streptavidin magnetic beads and incubated overnight with 89 nM to 0.7 nM solutions of AKT1. The beads were washed extensively and the bound protein was eluted. Samples were run on a SDS-PAGE gel and detected by Western Blot with an anti-AKT1 monoclonal antibody (Figure 3B).
as §2

AKT1 [3] = molecular target: T1, AKT1; experiment: IP of AKT1 spiked into A549 cell lysate, Western Blot; parameters: purchased Life Technologies; settings: 200 ng AKT1 (33.2 nM)
Method: As a preliminary test of specificity, 200 ng of AKT1 (33.2 nM) was spiked into increasing amounts of cell lysate prepared from un-stimulated A549 lung epithelial cells and streptavidin beads coated with 25 pmols of synbody (7.6∶1 synbody-to-AKT1 ratio) were used to pull down AKT1 using the same IP procedure and Western Blot protocol as before.
as §2

AKT1 [4] = molecular target: T1, AKT1; experiment: IP of AKT1 from pre-cleared A549 lysate with silver stain detection; parameters: purchased Life Technologies
Method: However, to more rigorously test the specificity of the synbody, we reduced the molar ratio of synbody to protein to approximately 2 to 1 and performed an IP to examine other proteins that were non-specifically bound by the synbody. In this experiment, 400 ng of AKT1 (66.4 nM) was spiked into 100 and 500 µg of A549 cell lysate pre-cleared on streptavidin beads (Figure S3) and precipitated using streptavidin beads coated with 15 pmols of synbody. Synbody coated beads and uncoated streptavidin beads were incubated overnight, washed, and bound proteins were eluted. Elution samples were split with half of the sample analyzed by silver stain and half analyzed by Western Blot (Figure 3E).
as §2
Due to the high-level of A549 lysate protein binding to the magnetic beads used previously, we pre-cleared the cell lysate prior to IP. This was accomplished by overnight incubation of 1 mL of lysate (∼5 mg/mL) with 1 mL of streptavidin beads. The supernatant was removed and this lysate was used in subsequent experiments. […] One half of each elution sample was analyzed by SDS-PAGE followed by staining using a SNAP Silver Stain kit (Thermo Pierce) while the other half of the sample was analyzed by SDS-PAGE with Western Blot detection as before.

AKT1 [5] = molecular target: T1, AKT1; experiment: IP of AKT isoforms spiked into A549 lysate: AKT1; parameters: purchased Life Technologies; settings: 250 ng of each isoform in 500 µg A549 lysate, Western Blot
Method: as §1, §2

- affinity for GRP58 by SPR screening [1]: low affinity
- IP of AKT1 from solution (AKT1 [2]): bound AKT1 from solution
- excess cell extract in the presence of which AKT1 is precipitated (AKT1 [3]; 25 pmols synbody (7.6:1), A549 lysate): 2,500 fold excess
- specificity (AKT1 [4]; IP silver stain, A549 lysate): useful, though not perfect specificity
- IP of AKT1 (isoform selectivity) (AKT1 [5]): selectively precipitates AKT1
Substance: I: AHKVVPQRQIRHAYNRYGSGKC(StBu)-NH2 / II: FRGWAHIFFGPHVIYRGGSG (amide I:21-II:C) [synbody]
- IP of AKT2 (isoform selectivity) (AKT2): relatively little
- precipitation of AKT1 from A549 lysate (AKT1 [3]; 25 pmols synbody (7.6:1 synbody-to-AKT1), increasing A549 lysate): successfully pulled AKT1 out of the cell lysate in the presence of an increasing concentration of A549 lysate with little reduction in AKT1 signal intensity
- proteins precipitated (silver stain) (AKT1 [4]; 400 ng AKT1 (66.4 nM) in pre-cleared A549 lysate, 500 µg (5mg/ml), 15 pmols synbody (approx. 2:1)): AKT1 was precipitated along with two other prominent proteins
- dominant band precipitated (AKT1 [4]; 400 ng AKT1 in 100 or 500 µg pre-cleared A549 lysate, Western Blot confirmation): the dominant band precipitated by the synbody was AKT1
